Patent publication US20090298889A1, “PHARMACEUTICAL COMPOSITIONS CONTAINING 2-PYRIDONE DERIVATIVES AS EFFECTIVE COMPONENTS” (SATO PHARMACEUTICAL CO., LTD., priority 2005, published 2009)
pIC50: −log10 of the molar value.

How the values were obtained:
neutrophils = assay: Test for examining cell adhesion-inhibitory effect (TNF-α-stimulated neutrophil adhesion to keyhole limpet hemocyanin-coated plate, Alamar blue fluorescence); format: cell-based, human (healthy person); settings: 0.5 h, human neutrophils stimulated with TNF-α 10 ng/mL, 37° C. 30 minutes, Probit technique, read-out: IC50 (50%-inhibitory concentration of cell adhesion)
Procedure: To a 96-well culture plate coated, in advance, with keyhole limpet hemocyanin, there was added 0.05 mL each of a solution of a candidate test compound in dimethylsulfoxide diluted to a final dimethylsulfoxide concentration of 1% with DMEM. A blood sample was collected from a healthy person through the median vein of elbow and the neutrophils were fractionated or isolated through the use of Mono-Poly Separation Liquid and the centrifugation. The fractionated neutrophils were suspended in DMEM to a concentration of 1×10^6 cells/mL and 0.1 mL of the resulting neutrophil-containing suspension was added to each well of the culture plate. Moreover, 40 ng/mL of tumor-necrosis factor (TNF)-α was diluted with DMEM to a final concentration of 10 ng/mL and 0.05 mL of the resulting diluted solution was added to each well of the culture plate. After the culture plate was allowed to stand at 37° C. for 30 minutes in a CO2-incubator, the plate was washed three times (thrice) with 0.2 mL of phosphate-buffered physiological saline (PBS(−), available from GIBCO Corporation). In addition, to each well, there was added 0.1 mL of a 10% solution of Alamar blue in DMEM, the culture plate was allowed to stand at 37° C. for 3 hours in a CO2-incubator, and then the intensity of fluorescent rays emitted from the adhered neutrophil cells was determined (Ex: 544 nm; Em: 590 nm). In this respect, the sample group free of any stimulation was defined to be the non-adhesion control group and the sample group stimulated with TNF-α was referred to as the adhesion control group to thus determine or calculate the cell adhesion-inhibitory rate of the compound of the present invention at each concentration, and the 50%-inhibitory concentration (IC50) was calculated from the cell adhesion-inhibitory rates thus determined according to the Probit technique. The same test procedures used above were repeated except for using different kinds of candidate compounds.

[1] = test system: neutrophil infiltration (MPO activity); assay: Effect on zymosan-induced neutrophil infiltration (MPO activity of peritoneal fluid); format: in vivo, ICR mice; settings: 30 mg/kg body weight orally, FIG. 1; for MPO activity with respect to the vehicle: 1 hour before intra-peritoneal zymosan, peritoneal fluid after 3 hours
Procedure: Each candidate compound was administered to 6-week-old male ICR mice, which had been fasted from the day before the initiation of this test. Each candidate compound was suspended in a 3% dimethylsulfoxide/carboxymethyl cellulose sodium solution and the resulting suspension was administered to the mice at a dose of 30 mg/kg body weight/10 mL. After the elapse of one hour, 1 mL of a 0.01% solution of zymosan in physiological saline was intra-peritoneally administered. After 3 hours, 5 mL of physiological saline was intra-peritoneally administered and the test animals were lightly massaged for 30 seconds. The abdominal wall of the test animals were slightly incised to thus collect the peritoneal fluid using a Pasteur pipette. Thereafter, the fluid thus recovered was centrifuged (at 20,000 g, for 20 minutes, at 4° C.), the resulting pellets were washed with a 50 mM sodium phosphate buffer (pH 6.0) and then again centrifuged. To the pellets thus recovered, there was added 0.5% hexadecyl trimethyl ammonium bromide (HTAB) and then centrifuged to thus give a supernatant, which was subsequently used as an enzyme source. To 15 μL of the enzyme source, there were added 200 μL of a 1.154 mM o-di-anisidine and 50 μL of a 0.005% hydrogen peroxide solution and then the optical densities at 450 nm (OD450) were determined to thus calculate the difference: (OD450 observed after 90 seconds from the initiation of the reaction)−(OD450 observed after 30 seconds from the initiation of the reaction), which was herein defined to be MPO activity. In this connection, the MPO activity was calculated, while defining the activity required for increasing the OD450 value by 0.001 as one unit. The MPO activity is herein defined to be the activity of the enzyme present in the neutrophils and accordingly, the reduction in the MPO activity means the inhibition of the neutrophil-infiltration. The results thus obtained are plotted on FIG. 1. […]

[2] = Toxicity test by administration of one time (single dose); settings: mouse, in vivo
Text: Test Animals Used: ICR Male Mice (5-Week-Old):
They were purchased and then preliminarily kept over one week, prior to the practical use thereof in this test.
Each test group comprised 5 animals.
Inspected Items: Appearance (such as death, weakening); Physical Conditions (such as the presence of lateral turning); Consciousness (such as excitation, lethargy (coma)); Behaviors (such as convulsions); Properties of fecal matters; and Foreign matters present in the urine.

Compound | melting point | pIC50 (neutrophils) | other results
CC(=O)c1cn(-c2ccccc2)c(=O)c(Sc2ccc(F)cc2)c1C [Compound 1, 5-acetyl-3-(4-fluorophenylthio)-4-methyl-1-phenyl-1H-pyridin-2-one] |  | 6.40 | MPO activity with respect to the vehicle [1]: decreases in the MPO activity; Result of single dose toxicity test (death, severe side-effect) [2]: All of the test animals were not died
CC(=O)c1c[nH]c(=O)c(Sc2ccc(F)cc2)c1C [Compound 42, 5-acetyl-3-(4-fluoro-phenylthio)-4-methyl-1H-pyridin-2-one] | 236 to 238 °C |  | 
CC(=O)c1c(C)c(Sc2ccc(F)cc2)c(=O)n(-c2ccccc2)c1C [Compound 62, 5-acetyl-3-(4-fluoro-phenylthio)-4,6-dimethyl-1-phenyl-1H-pyridin-2-one] |  | 6.24 | MPO activity with respect to the vehicle [1]: decreases in the MPO activity; neutrophil infiltration-inhibitory effect ([1]; zymosan-induced model): excellent neutrophil infiltration-inhibitory effects
CC(=O)c1cn(-c2ccccc2)c(=O)c(Br)c1C [Compound 70, 5-acetyl-3-bromo-4-methyl-1-phenyl-1H-pyridin-2-one] | 166.5 to 167.4 °C |  | 
Cc1c(C(C)O)cn(-c2ccccc2)c(=O)c1Sc1ccc(F)cc1 (stereo not drawn) [Compound 77, 3-(4-Fluoro-phenylthio)-5-(1-hydroxyethyl)-4-methyl-1-phenyl-1H-pyridin-2-one] |  | 6.01 | 

Further lines, with some results ahead:

melting point | Compound | pIC50 (neutrophils) | other results
215.4 to 216.8 °C | CC(=O)c1cn(-c2ccccc2)c(=O)c(C#N)c1C [Compound 71, 5-acetyl-4-methyl-2-oxo-1-phenyl-1,2-di-hydro-pyridine-3-carbonitrile] |  | 
184.5 to 185.3 °C | CC(=O)c1cn(-c2ccccc2)c(=O)c(Sc2ncccn2)c1C [Compound 74, 5-Acetyl-4-methyl-1-phenyl-3-(pyrimidin-2-yl-thio)-1H-pyridin-2-one] |  | 
116.8 to 118.7 °C | CCc1cn(-c2ccccc2)c(=O)c(Sc2ccc(F)cc2)c1C [Compound 80, 5-Ethyl-3-(4-fluoro-phenylthio)-4-methyl-1-phenyl-1H-pyridin-2-one] |  | 
